Data published in patent US20250231157A1, “METHOD FOR DETERMINING THE PARTITION OF NAPHTHENIC ACIDS FROM A PRODUCTION WATER MIMICKING SYSTEM AND MIMICKING SYSTEM” (PETRÓLEO BRASILEIRO S.A. – PETROBRAS, priority 2023, published 2025).

Test: Partition equilibrium with addition of calcium and strontium salts to the aqueous phase
Format: physicochemical
Conditions: for Effect of strontium ions on migration to the aqueous phase: strontium 400-2600 mg·L^−1
Method: The addition of salts to the reaction system is of fundamental importance when one intends to mimic field conditions. In this sense, in addition to continuing the study of the salinity effect (Example 4), the insertion of salts containing Ca^2+ and Sr^2+ ions, known to be present in seawater, was tested. To this end, the projects were based on the literature (Zheng, J. et al. Offshore produced water management: A review of current practice and challenges in harsh/Arctic environments. Mar. Pol. Bul. 2016, 104, 7-19) and four concentrations of each of the two ions were evaluated (400.0, 1200.0, 2600.0 and 9000.0 mg·L^−1), maintaining salinity at 3.5% (m·v^−1).
In short, the experimental results were generated in triplicate, using 99% NaCl to add salinity to the aqueous fraction and PA calcium chloride and PA strontium chloride to add calcium and strontium, respectively.
The addition of calcium and strontium to the reaction system, in the form of salts, aims at mimicking the real scenario in which both species are present (regardless of the salinity of the medium), especially in the well condition. This study aimed at understanding the effect (on the migration of acids to the organic phase) of this ion in the system also at concentrations higher than 10 mM. Finally, the experiments (in triplicate) with divalent strontium ions followed the same rationale.

[1] = Calcium 400 mg · L^−1, salinity 3.5%
[2] = Calcium 1200 mg · L^−1, salinity 3.5%
[3] = Calcium 2600 mg · L^−1, salinity 3.5%
[4] = Strontium 400 mg · L^−1, salinity 3.5%
[5] = Strontium 1200 mg · L^−1, salinity 3.5%
[6] = Strontium 2600 mg · L^−1, salinity 3.5%

Row | Migration (Absence of ions, salinity 3.5%) | Migration [1] | Migration [2] | Migration [3] | Migration [4] | Migration [5] | Migration [6] | Effect of calcium ion on migration to the aqueous phase (calcium up to the maximum study concentrations) | Effect of strontium ions on migration to the aqueous phase | Migration (Calcium 400 mg · L^−1, salinity 3.5%, listed as pentanoic acid) | Compound | Extent of salting out effect in the presence of calcium (calcium ions, salinity 3.5%) | Migration to the aqueous phase in the presence of strontium (strontium ions)
1 | 4.9 %, mol | 5.5 %, mol | 4.7 %, mol | 4.8 %, mol | 4.4 %, mol | 5.3 %, mol | 4.8 %, mol | no variation in migration | no effect |  | O=C(O)CCCCC1CCCCC1 [Cyclohexanepentanoic Acid, cyclohexanepentanoic acid] |  | 
2 | 77.0 %, mol | 90.0 %, mol | 98.7 %, mol | 96.7 %, mol | 100.0 %, mol | 100.0 %, mol | 100.0 %, mol |  | increase in migration | ~100 %, mol | CCCCC(=O)O [Pentanoic Acid, pentanoic acid] |  | 

Row | Compound | Migration (Absence of ions, salinity 3.5%) | Migration [1] | Migration [2] | Migration [3] | Migration [4] | Migration [5] | Migration [6] | Effect of calcium ion on migration to the aqueous phase (calcium up to the maximum study concentrations) | Effect of strontium ions on migration to the aqueous phase | Migration (Calcium 400 mg · L^−1, salinity 3.5%, listed as pentanoic acid) | Extent of salting out effect in the presence of calcium (calcium ions, salinity 3.5%) | Migration to the aqueous phase in the presence of strontium (strontium ions)
3 | O=C(O)c1ccccc1 [Benzoic Acid, benzoic acid] | 82.0 %, mol | 80.0 %, mol | 56.7 %, mol | 56.7 %, mol | 83.0 %, mol | 83.0 %, mol | 83.0 %, mol |  |  |  | greater than 30% | above 80 % (m·v^−1)
